From patent US20020022266A1, “Localized delivery to a target surface” (priority 2000, published 2002)

Tests used:
[1] = tested on: Bovine carotid arteries
Source text: (§1) Bovine carotid and rabbit femoral arteries were harvested and placed into a container with DMEM. The arteries were then transferred to a petri dish with DPBS, and excess fat was removed from the vessel exterior with the aid of a scalpel and forceps. The vessel was then filleted with a pair of surgical scissors to expose the luminal surface. The lumen of the bovine vessel was scrape damaged with a spatula to simulate the damage that would occur during a vascular procedure in which plaque is scrapped off. The vessel was utilized without further preparation. The vessels were loaded into a tubular perfusion chamber. The wash medium used was DMEM with a 4.5 g/dl of bovine serum albumin [BSA] (Sigma). A syringe pump (Harvard Apparatus) was used to provide flow and mimic the arterial shear conditions that would be experienced in vivo. Initially, the vessel was perfused for five minutes with the wash medium. At this point, 1 mL of a 10 mM NHS-PEG-Biotin solution was injected into the chamber and incubated with the vessel for modification for one minute. Again, the wash medium was perfused for five minutes. Next, a 10 mL solution of NeutrAvidin-coated microspheres (Molecular Probes) at a concentration of 7.28×10^6 particles/mL was perfused over the modified surface for 2 minutes. The vessel was washed for five minutes one additional time and then removed from the chamber. Finally, the vessel was analyzed by counting the number of microspheres bound per mm^2 of tissue using epi-fluorescence microscopy. This same protocol was repeated for the control, with the vessel being incubated with DPBS alone and not the NHS-PEG-Biotin as described previously.

[2] = tested on: rabbit femoral arteries; conditions: 10 mM, one minute modification, two-minute perfusion, versus control, FIG. 3
Source text: as §1

For NHS-PEG-Biotin, the “number of microspheres bound per mm^2 of tissue” value ([1]; bovine arteries, 10 mM, one minute modification, two-minute perfusion, versus control, FIG. 2) was “far greater than the control vessels”, the “binding of the microspheres to the modified versus unmodified surfaces (fluorescent micrographs)” value ([1]; carotid artery segments, 10 mM NHS-PEG-Biotin, one minute, FIGS. 1A and 1B) was “microspheres have attached” and the “number of microspheres bound per mm^2 of tissue” value [2] was “far greater than the control vessels”.
